Measured values published in patent publication US8993574B2, “Pyrrole antifungal agents” (F2G Ltd, priority 2008, dated 2015).
Values after ≈ are worked out from the molar mass of the structure shown.

How the values were obtained:
Assay type in all cases: cell-based
[1] = system: Aspergillus niger; experiment: MIC, YAG medium; settings: 24 h at 35° C, MIC banded into grades; for MIC: Aspergillus niger, read-out: MIC grade, A. niger
Summary of the method: (§1)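 Endpoint is growth at OD 485 nm after 24 h at 35° C, with MIC defined as the lowest drug level giving >70% inhibition relative to untreated wells and recorded in mg/L. Tests ran in YAG broth with 1−2×10^4 cfu/mL spore inocula from Sabouraud-grown cultures. Drug ranges were 50-0.05 mg/L, repeated at 0.5-0.0005 mg/L when needed.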

[2] = system: Aspergillus flavus; experiment: MIC, YAG medium; settings: 24 h at 35° C, MIC banded into grades; for MIC: Aspergillus flavus, 24 h, read-out: MIC grade, A. flavus
Summary of the method: as §1

[3] = system: Aspergillus fumigatus AF210; experiment: MIC, YAG medium; settings: 24 h at 35° C, MIC banded into grades; for MIC: Aspergillus fumigatus, read-out: MIC grade, A. fumigatus 210
Summary of the method: as §1

[4] = system: Aspergillus terreus AT4; experiment: MIC, YAG medium; settings: 24 h at 35° C, MIC banded into grades; for MIC: Aspergillus terreus, read-out: MIC grade, A. terreus
Summary of the method: as §1

[5] = system: Aspergillus terreus AT49; experiment: MIC, YAG medium; settings: 24 h at 35° C, MIC banded into grades; for MIC: Aspergillus terreus, read-out: MIC grade, A. terreus 49
Summary of the method: as §1

[6] = system: Aspergillus fumigatus AF293; experiment: MIC, YAG medium; settings: 24 h at 35° C, MIC banded into grades; for MIC: Aspergillus fumigatus, read-out: MIC grade, A. fumigatus
Summary of the method: as §1

[7] = system: Candida glabrata; experiment: MIC, RPMI medium; settings: 24-48 h at 35° C., >80% growth inhibition, banded into grades; for MIC: Nakaseomyces glabratus
Summary of the method: (§2)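 Minimum inhibitory concentrations were determined in glucose-supplemented (2%) RPMI buffered to pH 7.0 with 0.135 M MOPS. Wells held 1−2×10^4 cfu/mL and compound from 50 to 0.05 mg/L, incubated 24-48 h at 35° C, with >80% growth reduction by OD 485 nm as endpoint.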

[8] = system: Aspergillus niger; experiment: MIC, RPMI medium; settings: MIC banded into grades; for MIC: Aspergillus niger, read-out: MIC grade, A. niger
Summary of the method: as §2

[9] = system: Candida tropicalis; experiment: MIC, RPMI medium; settings: 24-48 h at 35° C., >80% growth inhibition, banded into grades; for MIC: Candida tropicalis
Summary of the method: as §2

[10] = system: Candida albicans; experiment: MIC, RPMI medium; settings: 24-48 h at 35° C., >80% growth inhibition, banded into grades; for MIC: Candida albicans
Summary of the method: as §2

[11] = system: Aspergillus flavus; experiment: MIC, RPMI medium; settings: MIC banded into grades; for MIC: Aspergillus flavus, read-out: MIC grade, A. flavus
Summary of the method: as §2

[12] = system: Candida krusei; experiment: MIC, RPMI medium; settings: 24-48 h at 35° C., >80% growth inhibition, banded into grades; for MIC: Pichia kudriavzevii
Summary of the method: as §2

[13] = system: Aspergillus fumigatus AF210; experiment: MIC, RPMI medium; settings: for MIC: Aspergillus fumigatus, AF210, MIC banded into grades, read-out: MIC grade, A. fumigatus 210; for MIC grade, A. fumigatus 210: MIC banded into grades
Summary of the method: as §2

[14] = system: Candida parapsilosis; experiment: MIC, RPMI medium; settings: 24-48 h at 35° C., >80% growth inhibition, banded into grades; for MIC: Lodderomyces parapsilosis
Summary of the method: as §2

[15] = system: Aspergillus terreus AT4; experiment: MIC, RPMI medium; settings: for MIC: Aspergillus terreus, AT4, MIC banded into grades, read-out: MIC grade, A. terreus; for MIC grade, A. terreus: MIC banded into grades
Summary of the method: as §2

[16] = system: Aspergillus terreus AT49; experiment: MIC, RPMI medium; settings: for MIC: Aspergillus terreus, AT49, MIC banded into grades, read-out: MIC grade, A. terreus 49; for MIC grade, A. terreus 49: MIC banded into grades
Summary of the method: as §2

[17] = system: Aspergillus fumigatus AF293; experiment: MIC, RPMI medium; settings: for MIC: Aspergillus fumigatus, AF293, MIC banded into grades, read-out: MIC grade, A. fumigatus; for MIC grade, A. fumigatus: MIC banded into grades
Summary of the method: as §2

Structure (SMILES) | MIC [1] [µg/mL] | MIC [2] [µg/mL] | MIC [3] [µg/mL] | MIC [4] [µg/mL] | MIC [5] [µg/mL] | MIC [6] [µg/mL] | MIC [7] [µg/mL] | MIC [8] [µg/mL] | MIC [9] [µg/mL] | MIC [10] [µg/mL] | MIC [11] [µg/mL] | MIC [12] [µg/mL] | MIC [13] [µg/mL] | MIC [14] [µg/mL] | MIC [15] [µg/mL] | MIC [16] [µg/mL] | MIC [17] [µg/mL] | also measured
COCCn1ccc(-c2ccccc2)c1C(=O)C(=O)Nc1ccc(N2CCN(c3cc(C)cc(C)n3)CC2)cc1 [Example 47, N-{4-[4-(4,6-Dimethyl-pyridin-2-yl)-piperazin-1-yl]-phenyl}-2-[1-(2-methoxy-ethyl)-3-phenyl-1H-pyrrol-2-yl]-2-oxo-acetamide] | 1 to 10 (≈ 1.86 to 18.6 µM) | < 1 | < 1 | 1 to 10 (≈ 1.86 to 18.6 µM) | < 1 | < 1 | < 1 | 1 to 10 (≈ 1.86 to 18.6 µM) | 1 to 10 (≈ 1.86 to 18.6 µM) | 1 to 10 (≈ 1.86 to 18.6 µM) | 1 to 10 (≈ 1.86 to 18.6 µM) | 1 to 10 (≈ 1.86 to 18.6 µM) | 1 to 10 (≈ 1.86 to 18.6 µM) | 1 to 10 (≈ 1.86 to 18.6 µM) | 1 to 10 (≈ 1.86 to 18.6 µM) | 1 to 10 (≈ 1.86 to 18.6 µM) | 1 to 10 (≈ 1.86 to 18.6 µM) | –
COCCn1c(C)cc(-c2ccccc2)c1C(=O)C(=O)Nc1ccccc1 [Example 60, 2-[1-(2-Methoxy-ethyl)-5-methyl-3-phenyl-1H-pyrrol-2-yl]-2-oxo-N-phenyl-1-acetamide] | – | – | – | – | – | – | – | – | – | – | – | – | – | – | – | – | – | MIC grade, A. niger [1]: 2 (A grade of 2 represents an MIC of from 1 to 10 mg/L); MIC grade, A. flavus [2]: 1 (a grade of 1 represents an MIC of greater than 10 mg/L); MIC grade, A. fumigatus 210 [3]: 2 (A grade of 2 represents an MIC of from 1 to 10 mg/L); MIC grade, A. terreus [4]: 2 (A grade of 2 represents an MIC of from 1 to 10 mg/L); MIC grade, A. terreus 49 [5]: 2 (A grade of 2 represents an MIC of from 1 to 10 mg/L); MIC grade, A. fumigatus [6]: 2 (A grade of 2 represents an MIC of from 1 to 10 mg/L); Candida MIC, C. glabrata [7]: 3 (A grade of 3 represents an MIC of less than 1 mg/L); MIC grade, A. niger [8]: 2 (A grade of 2 represents an MIC of from 1 to 10 mg/L); Candida MIC, C. tropicalis [9]: 2 (A grade of 2 represents an MIC of from 1 to 10 mg/L); Candida MIC, C. albicans [10]: 3 (A grade of 3 represents an MIC of less than 1 mg/L); MIC grade, A. flavus [11]: 1 (a grade of 1 represents an MIC of greater than 10 mg/L); Candida MIC, C. krusei [12]: 3 (A grade of 3 represents an MIC of less than 1 mg/L); MIC grade, A. fumigatus 210 [13]: 2 (A grade of 2 represents an MIC of from 1 to 10 mg/L); Candida MIC, C. parapsilosis [14]: 3 (A grade of 3 represents an MIC of less than 1 mg/L); MIC grade, A. terreus [15]: 1 (a grade of 1 represents an MIC of greater than 10 mg/L); MIC grade, A. terreus 49 [16]: 1 (a grade of 1 represents an MIC of greater than 10 mg/L); MIC grade, A. fumigatus [17]: 2 (A grade of 2 represents an MIC of from 1 to 10 mg/L)
Cc1cc(C)nc(N2CCN(c3ccc(NC(=O)C(=O)c4c(-c5ccccc5)ccn4CCN(C)C)cc3)CC2)c1 [Example 84, 2-[1-(2-Dimethylamino-ethyl)-3-phenyl-1H-pyrrol-2-yl]-N-{4-[4-(4,6-dimethyl-pyridin-2-yl)-piperazin-1-yl]-phenyl}-2-oxo-acetamide] | > 10 | > 10 | > 10 | > 10 | > 10 | > 10 | < 1 | > 10 | < 1 | < 1 | > 10 | < 1 | > 10 | < 1 | > 10 | > 10 | > 10 | –
CCOC(=O)Cn1c(C)cc(-c2ccccc2)c1C(=O)C(=O)Nc1ccc(N2CCN(c3cc(C)cc(C)n3)CC2)cc1 [Example 69, (2-{4-[4-(4,6-Dimethyl-pyridin-2-yl)-piperazin-1-yl]-phenylaminooxalyl}-5-methyl-3-phenyl-pyrrol-1-yl)-acetic acid ethyl ester] | – | – | – | – | – | – | – | – | – | – | – | – | – | – | – | – | – | MIC grade, A. niger [1]: 3 (A grade of 3 represents an MIC of less than 1 mg/L); MIC grade, A. flavus [2]: 2 (A grade of 2 represents an MIC of from 1 to 10 mg/L); MIC grade, A. fumigatus 210 [3]: 3 (A grade of 3 represents an MIC of less than 1 mg/L); MIC grade, A. terreus [4]: 3 (A grade of 3 represents an MIC of less than 1 mg/L); MIC grade, A. terreus 49 [5]: 3 (A grade of 3 represents an MIC of less than 1 mg/L); MIC grade, A. fumigatus [6]: 3 (A grade of 3 represents an MIC of less than 1 mg/L); Candida MIC, C. glabrata [7]: 3 (A grade of 3 represents an MIC of less than 1 mg/L); MIC grade, A. niger [8]: 3 (A grade of 3 represents an MIC of less than 1 mg/L); Candida MIC, C. tropicalis [9]: 3 (A grade of 3 represents an MIC of less than 1 mg/L); Candida MIC, C. albicans [10]: 2 (A grade of 2 represents an MIC of from 1 to 10 mg/L); MIC grade, A. flavus [11]: 1 (a grade of 1 represents an MIC of greater than 10 mg/L); Candida MIC, C. krusei [12]: 2 (A grade of 2 represents an MIC of from 1 to 10 mg/L); MIC grade, A. fumigatus 210 [13]: 3 (A grade of 3 represents an MIC of less than 1 mg/L); Candida MIC, C. parapsilosis [14]: 3 (A grade of 3 represents an MIC of less than 1 mg/L); MIC grade, A. terreus [15]: 2 (A grade of 2 represents an MIC of from 1 to 10 mg/L); MIC grade, A. terreus 49 [16]: 2 (A grade of 2 represents an MIC of from 1 to 10 mg/L); MIC grade, A. fumigatus [17]: 3 (A grade of 3 represents an MIC of less than 1 mg/L)

Now from value to compound, other results behind:

MIC [1] [µg/mL] | MIC [2] [µg/mL] | MIC [3] [µg/mL] | MIC [4] [µg/mL] | MIC [5] [µg/mL] | MIC [6] [µg/mL] | MIC [7] [µg/mL] | MIC [8] [µg/mL] | MIC [9] [µg/mL] | MIC [10] [µg/mL] | MIC [11] [µg/mL] | MIC [12] [µg/mL] | MIC [13] [µg/mL] | MIC [14] [µg/mL] | MIC [15] [µg/mL] | MIC [16] [µg/mL] | MIC [17] [µg/mL] | Structure (SMILES) | also measured
< 1 | < 1 | < 1 | < 1 | < 1 | < 1 | < 1 | < 1 | 1 to 10 (≈ 1.93 to 19.3 µM) | < 1 | < 1 | < 1 | < 1 | < 1 | < 1 | < 1 | < 1 | C=C(C)CN1CCN(c2ccc(NC(=O)C(=O)c3c(-c4ccccc4)cc(C)n3CCOC)c(F)c2)CC1 [Example 109, N-{2-Fluoro-4-[4-(2-methyl-allyl)-piperazin-1-yl]-phenyl}-2-[1-(2-methoxy-ethyl)-5-methyl-3-phenyl-1H-pyrrol-2-yl]-2-oxo-acetamide] | –
< 1 | < 1 | < 1 | < 1 | < 1 | < 1 | < 1 | < 1 | < 1 | < 1 | < 1 | < 1 | < 1 | < 1 | < 1 | < 1 | < 1 | Cc1cc(C)nc(N2CCN(c3ccc(NC(=O)C(=O)c4c(-c5cccs5)cc(C)n4C)cc3)CC2)c1 [Example 13, N-{4-[4-(4,6-Dimethyl-pyridin-2-yl)-piperazin-1-yl]-phenyl}-2-(1,5-dimethyl-3-thiophen-2-yl-1H-pyrrol-2-yl)-2-oxo-acetamide] | –
> 10 | 1 to 10 (≈ 1.77 to 17.7 µM) | > 10 | > 10 | > 10 | > 10 | < 1 | > 10 | < 1 | < 1 | > 10 | < 1 | > 10 | < 1 | > 10 | > 10 | > 10 | Cc1cc(C)nc(N2CCN(c3ccc(NC(=O)C(=O)c4c(-c5ccccc5)cc(C)n4CCN(C)C)cc3)CC2)c1 [Example 86, 2-[1-(2-Dimethylamino-ethyl)-5-methyl-3-phenyl-1H-pyrrol-2-yl]-N-{4-[4-(4,6-dimethyl-pyridin-2-yl)-piperazin-1-yl]-phenyl}-2-oxo-acetamide] | –
